Values of other authors in patent publication JPH06128153A, “トラニラスト軟膏組成物およびその製造方法” (Kissei Pharmaceutical Co Ltd, priority 1992, dated 1994).
Read-outs that look alike come from different tables or passages of the source.

Conditions: stated as known, no test described

Compound | solubility in water (ナトリウム塩) | solubility in water
COc1ccc(/C=C/C(=O)Nc2ccccc2C(=O)O)cc1OC [ナトリウム塩] | わずかしか溶解しない | 
COc1ccc(/C=C/C(=O)Nc2ccccc2C(=O)O)cc1OC [トラニラスト] |  | 極めて難溶
